Read-outs that look alike come from different tables or passages of the source.
Key:
[1] = test system: late components of human complement (C3-C9); assay: Test Code 035 (C3-C9 inhibitor), lysis of EAC 142; format: biochemical; conditions: serial twofold dilution assay; higher well number indicates higher activity
Excerpt: (§1) An active inhibitor protects C2 from C1 and C4; (ii) Test Code 035 (C3-C9 inhibitor)--This test determines the ability of the late components of human complement (C3-C9) to lyse EAC 142 in the presence of approriate dilutions of the test compound. An active inhibitor protects EAC 142 from lysis by human C3-C9; (iii) Test Code 036 (C-Shunt inhibitor)--In this test human erythrocytes rendered fragile are lysed in autologous serum via the shunt pathway activated by cobra venom factor in the presence of appropriate dilutions of the test compound. Inhibition of the shunt pathway results in failure of lysis; (iv) Forssman Vasculitis Test--Here, the well known complement dependent lesion, Forssman vasculitis, is produced in guinea pigs by intradermal injection of rabbit anti-Forssman antiserum. […] Percent inhibition is calculated by comparison with simultaneous controls. […]

[2] = target: activated human C1 (Homo sapiens, UniProt P09871); assay: Test Code 026 (C1 inhibitor); format: biochemical; conditions: serial twofold dilution assay; higher well number indicates higher activity
Excerpt: as §1

[3] = test system: shunt pathway; assay: Test Code 036 (C-Shunt inhibitor), lysis of fragile human erythrocytes in autologous serum, cobra venom factor activated; format: cell-based; conditions: serial twofold dilution assay; higher well number indicates higher activity
Excerpt: as §1

[4] = test system: complement activity of serum; assay: Guinea Pig Intraperitoneal Test (GPIP), serum complement activity; format: in vivo; conditions: Cavia porcellus, ip, 200 mg./kg. i.p.
Excerpt: An active inhibitor protects C2 from C1 and C4; (ii) Test Code 035 (C3-C9 inhibitor)--This test determines the ability of the late components of human complement (C3-C9) to lyse EAC 142 in the presence of approriate dilutions of the test compound. An active inhibitor protects EAC 142 from lysis by human C3-C9; (iii) Test Code 036 (C-Shunt inhibitor)--In this test human erythrocytes rendered fragile are lysed in autologous serum via the shunt pathway activated by cobra venom factor in the presence of appropriate dilutions of the test compound. Inhibition of the shunt pathway results in failure of lysis; (iv) Forssman Vasculitis Test--Here, the well known complement dependent lesion, Forssman vasculitis, is produced in guinea pigs by intradermal injection of rabbit anti-Forssman antiserum. The lesion is measured in terms of diameter, edema and hemorrhage and the extent to which a combined index of these is inhibited by prior intraperitoneal injection of the test compound at 200 mg./kg. is then reported, unless otherwise stated; (v) Forssman Shock Test--Lethal shock is produced in guinea pigs by an i.v. injection of anti-Forssman antiserum and the haromic mean death time of treated guinea pigs is compared with that of simultaneous controls; (vi) Complement Level Reduction Test--In this test, the above dosed guinea pigs, or others, are bled for serum and the complement level is determined in undiluted serum by the capillary tube method of U.S. Pat. No. 3,876,376 and compared to undosed control guinea pigs; (vii) Cap 50 Test--Here, appropriate amounts of the test compound are added to a pool of guinea pig serum in vitro, after which the undiluted serum capillary tube assay referred to above is run. The concentration of compound inhibiting 50% is reported; (viii) Guinea Pig Intraperitoneal Test (GPIP)--Guinea Pigs weighing about 300 g. are dosed intraperitoneally (i.p.) with 200 mg./kg. of the test compound dissolved in saline and adjusted to pH 7-8. […] Percent inhibition is calculated by comparison with simultaneous controls. […]

For O=C([O-])c1cc(NS(=O)(=O)c2cc(S(=O)(=O)Nc3cc(C(=O)[O-])c(C(=O)[O-])c(C(=O)[O-])c3)c3c(Cl)ccc(S(=O)(=O)Nc4cc(C(=O)[O-])c(C(=O)[O-])c(C(=O)[O-])c4)c3c2)cc(C(=O)[O-])c1C(=O)[O-].[Na+].[Na+].[Na+].[Na+].[Na+].[Na+].[Na+].[Na+].[Na+] [5,5',5"-[(8-chloro-1,3,5-naphthalenetriyl)tris(sulfonylimino)]-tri-1,2,3-benzenetricarboxylic acid, nonasodium salt], the “C-Late 035 Wells” value [1] was “+2 Wells”, the “Cl 026 Wells” value [2] was “+7 Wells” and the “Shunt Inhibition 036 Wells” value [3] was “+5 Wells”. For the same compound, the inhibition at 200 mg/kg ([4]; 0.5 h, blood sample 30 minutes after injection, read-out: In Vivo Activity (Guinea Pig) % Inhibition Intraperitoneal, 30 minutes) was -75%, the inhibition at 200 mg/kg ([4]; 1 h, blood sample 60 minutes after injection, read-out: In Vivo Activity (Guinea Pig) % Inhibition Intraperitoneal, 60 minutes) was -69% and the inhibition at 200 mg/kg ([4]; 2 h, blood sample 120 minutes after injection, read-out: In Vivo Activity (Guinea Pig) % Inhibition Intraperitoneal, 120 minutes) was 75%.

Source: patent publication US4282375A, “Halogenated-naphthalenetriyltris(sulfonylimino)-aryl multicarboxylic acids and salts thereof” (priority 1979, dated 1981)
